Activity calls are given as the source filed them. A value given as a limit tells only on which side of the number the result lay.

The target of test [1] is Beta-lactamase (Salmonella choleraesuis (strain SC-B67), UniProt Q5J463).
In a further test the target is ORF 73 (Human herpesvirus 8, UniProt O40947). The test is described as follows: inhibitors of C-LANA binding to LBS DNA, dose response, biochemical, fluorescence polarization, cherry-picked samples (AID 504725).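 Also: fluorescence polarization of a labeled DNA duplex reporting LANA DNA binding; potency is for inhibitors that block LANA binding to the DNA.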 On the set-up: species or system Human gammaherpesvirus 8.
ORF 73, sequence (O40947 whole entry): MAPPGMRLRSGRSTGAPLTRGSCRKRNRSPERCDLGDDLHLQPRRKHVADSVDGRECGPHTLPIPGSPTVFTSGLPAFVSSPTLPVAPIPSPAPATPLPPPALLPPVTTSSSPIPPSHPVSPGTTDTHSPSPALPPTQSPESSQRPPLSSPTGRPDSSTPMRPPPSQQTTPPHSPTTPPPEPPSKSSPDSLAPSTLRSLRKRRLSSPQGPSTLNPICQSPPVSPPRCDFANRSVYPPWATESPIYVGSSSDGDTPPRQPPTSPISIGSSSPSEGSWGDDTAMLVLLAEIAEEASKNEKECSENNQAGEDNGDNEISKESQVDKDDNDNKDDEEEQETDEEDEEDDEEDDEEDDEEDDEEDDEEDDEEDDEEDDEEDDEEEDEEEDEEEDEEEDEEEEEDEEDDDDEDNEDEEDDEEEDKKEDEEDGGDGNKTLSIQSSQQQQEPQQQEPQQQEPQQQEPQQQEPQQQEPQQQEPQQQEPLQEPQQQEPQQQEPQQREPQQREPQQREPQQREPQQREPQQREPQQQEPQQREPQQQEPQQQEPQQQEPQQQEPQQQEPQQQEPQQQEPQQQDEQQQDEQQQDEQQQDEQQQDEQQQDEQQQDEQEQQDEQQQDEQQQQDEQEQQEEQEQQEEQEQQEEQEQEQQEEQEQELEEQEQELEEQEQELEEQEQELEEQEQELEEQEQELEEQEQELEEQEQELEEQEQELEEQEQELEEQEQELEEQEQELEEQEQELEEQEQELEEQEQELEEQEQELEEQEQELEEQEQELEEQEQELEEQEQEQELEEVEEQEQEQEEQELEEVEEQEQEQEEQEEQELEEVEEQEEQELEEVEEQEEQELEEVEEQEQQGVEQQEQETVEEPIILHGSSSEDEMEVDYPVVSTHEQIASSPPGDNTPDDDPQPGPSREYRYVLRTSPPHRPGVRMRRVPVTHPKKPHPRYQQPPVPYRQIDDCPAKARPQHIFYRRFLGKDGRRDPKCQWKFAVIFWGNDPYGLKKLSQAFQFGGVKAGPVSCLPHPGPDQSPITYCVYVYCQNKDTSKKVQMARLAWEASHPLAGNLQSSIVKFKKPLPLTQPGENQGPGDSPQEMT
For test [2], the target named is T1, Insulin-degrading enzyme (Homo sapiens, UniProt P14735).
T1 sequence (P14735 whole entry): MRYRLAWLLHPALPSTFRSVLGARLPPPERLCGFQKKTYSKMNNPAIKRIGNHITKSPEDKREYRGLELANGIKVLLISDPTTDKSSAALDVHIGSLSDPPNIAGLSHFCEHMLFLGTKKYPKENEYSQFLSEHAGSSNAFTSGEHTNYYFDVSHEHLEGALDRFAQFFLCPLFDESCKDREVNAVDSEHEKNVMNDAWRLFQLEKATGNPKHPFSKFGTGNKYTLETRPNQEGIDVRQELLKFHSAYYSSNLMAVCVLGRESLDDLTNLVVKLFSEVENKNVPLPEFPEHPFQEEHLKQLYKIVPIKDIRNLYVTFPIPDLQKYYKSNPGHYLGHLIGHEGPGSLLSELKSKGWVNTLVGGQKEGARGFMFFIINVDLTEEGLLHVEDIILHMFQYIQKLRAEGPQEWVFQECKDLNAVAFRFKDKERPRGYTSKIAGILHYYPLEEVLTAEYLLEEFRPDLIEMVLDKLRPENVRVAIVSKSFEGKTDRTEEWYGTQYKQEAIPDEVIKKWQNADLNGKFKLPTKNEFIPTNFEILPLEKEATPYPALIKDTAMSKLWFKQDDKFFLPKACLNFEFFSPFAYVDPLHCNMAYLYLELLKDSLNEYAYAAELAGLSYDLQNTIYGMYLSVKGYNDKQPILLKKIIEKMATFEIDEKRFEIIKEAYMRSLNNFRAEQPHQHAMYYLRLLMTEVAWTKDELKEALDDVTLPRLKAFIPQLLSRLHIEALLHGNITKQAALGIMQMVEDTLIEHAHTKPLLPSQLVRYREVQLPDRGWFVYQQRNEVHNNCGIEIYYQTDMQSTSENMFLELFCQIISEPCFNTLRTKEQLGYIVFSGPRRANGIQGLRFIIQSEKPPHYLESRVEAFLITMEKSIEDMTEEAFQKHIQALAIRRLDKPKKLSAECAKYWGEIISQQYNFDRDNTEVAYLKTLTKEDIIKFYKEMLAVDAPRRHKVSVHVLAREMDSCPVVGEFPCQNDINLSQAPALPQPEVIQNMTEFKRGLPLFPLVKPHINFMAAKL
The test is described as follows: activators of endogenous IDE in HEK cells, dose response, cell-based, fluorescence polarization (AID 588439). The test is classed as functional.

A further test addresses Troponin, cardiac muscle (Homo sapiens, UniProt P19429+P45379+P63316). The test is described as follows: Fluorescence-based biochemical high throughput dose response assay for activators of the calcium sensitivity of cardiac Regulated Thin Filaments (RTF). [Related pubchem assays (depositor defined):AID493008, AID493018, AID504382, AID504383]. Format: protein-complex assay.

In test [3] the target is T1, Insulin-degrading enzyme. The test is described as follows: activators of recombinant IDE enzyme, dose response, counter-screen for IDE activator project, biochemical, fluorescence polarization (AID 588681).
The subject of test [4] is HEK293. The test is described as follows: optical interference in Abeta FP readout, dose response, artefact control for IDE activator project, biochemical, fluorescence polarization (AID 588442). The test is classed as functional, cell-based. The settings on record: Homo sapiens.
The test system of test [5] is HEK293. The test is described as follows: HEK cell cytotoxicity by LDH release, dose response, cytotoxicity control for IDE activator project, fluorescence, HEK cells (AID 588440).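 Also: cytotoxicity by LDH release measuring loss of membrane integrity.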 The test is classed as functional, cell-based. The settings on record: Homo sapiens.
The nature of test [6]: fluorescence interference artefacts, compound only, dose response, artefact control for cardiac thin filament activator project, biochemical, no RTF in test wells (AID 504697).
In test [7] the target is Beta-lactamase (Pseudomonas aeruginosa, UniProt Q79MP6).
Beta-lactamase (Pseudomonas aeruginosa, UniProt Q79MP6), sequence (Q79MP6 whole entry): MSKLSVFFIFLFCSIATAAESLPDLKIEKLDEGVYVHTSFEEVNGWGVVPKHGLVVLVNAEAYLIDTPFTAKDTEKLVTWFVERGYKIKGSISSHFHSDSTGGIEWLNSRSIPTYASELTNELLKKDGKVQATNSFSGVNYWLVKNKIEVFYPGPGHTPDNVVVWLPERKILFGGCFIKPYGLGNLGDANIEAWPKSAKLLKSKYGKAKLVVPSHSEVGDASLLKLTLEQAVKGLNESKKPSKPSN
For another test, the target named is T2, Bcl-2-related protein A1 (Mus musculus, UniProt Q07440).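 Also: confirmatory dose–response counterscreen on Bfl-1, used to check hits from a UBC13 polyubiquitin inhibitor campaign.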
T2 sequence (Q07440 whole entry): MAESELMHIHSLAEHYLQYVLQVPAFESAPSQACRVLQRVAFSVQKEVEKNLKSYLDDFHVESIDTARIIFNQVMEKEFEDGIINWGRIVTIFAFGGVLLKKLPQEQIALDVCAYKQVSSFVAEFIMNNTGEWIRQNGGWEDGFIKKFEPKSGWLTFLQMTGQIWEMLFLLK
Format: functional.

Test [8] deals with T3, Ubiquitin-conjugating enzyme E2 N (Homo sapiens, UniProt P61088).
T3 sequence (P61088 whole entry): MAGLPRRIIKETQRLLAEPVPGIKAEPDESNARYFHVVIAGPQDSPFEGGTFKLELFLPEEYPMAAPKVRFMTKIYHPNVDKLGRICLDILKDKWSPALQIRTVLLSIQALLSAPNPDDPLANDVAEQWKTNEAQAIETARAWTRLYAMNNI
Format: functional.

Test [9] has as its target T3, Ubiquitin-conjugating enzyme E2 N. The test is classed as functional. The source holds these as a separate data set.
For test [10], the target named is T4, Tyrosine-protein phosphatase non-receptor type 7 (Homo sapiens, UniProt P35236).
T4 sequence (P35236 whole entry): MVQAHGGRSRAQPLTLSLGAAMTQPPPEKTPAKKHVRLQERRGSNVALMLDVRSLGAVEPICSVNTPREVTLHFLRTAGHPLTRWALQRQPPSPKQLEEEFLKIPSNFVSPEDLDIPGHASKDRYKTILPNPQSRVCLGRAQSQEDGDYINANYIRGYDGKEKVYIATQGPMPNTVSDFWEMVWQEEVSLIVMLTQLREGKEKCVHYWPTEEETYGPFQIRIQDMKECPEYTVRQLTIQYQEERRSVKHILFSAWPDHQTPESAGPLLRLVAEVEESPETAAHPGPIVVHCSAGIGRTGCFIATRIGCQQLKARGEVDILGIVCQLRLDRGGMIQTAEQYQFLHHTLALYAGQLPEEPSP
Format: functional.

The target of test [11] is T5, Tyrosine-protein phosphatase non-receptor type 22 (Homo sapiens, UniProt Q9Y2R2).
T5 sequence (Q9Y2R2 whole entry): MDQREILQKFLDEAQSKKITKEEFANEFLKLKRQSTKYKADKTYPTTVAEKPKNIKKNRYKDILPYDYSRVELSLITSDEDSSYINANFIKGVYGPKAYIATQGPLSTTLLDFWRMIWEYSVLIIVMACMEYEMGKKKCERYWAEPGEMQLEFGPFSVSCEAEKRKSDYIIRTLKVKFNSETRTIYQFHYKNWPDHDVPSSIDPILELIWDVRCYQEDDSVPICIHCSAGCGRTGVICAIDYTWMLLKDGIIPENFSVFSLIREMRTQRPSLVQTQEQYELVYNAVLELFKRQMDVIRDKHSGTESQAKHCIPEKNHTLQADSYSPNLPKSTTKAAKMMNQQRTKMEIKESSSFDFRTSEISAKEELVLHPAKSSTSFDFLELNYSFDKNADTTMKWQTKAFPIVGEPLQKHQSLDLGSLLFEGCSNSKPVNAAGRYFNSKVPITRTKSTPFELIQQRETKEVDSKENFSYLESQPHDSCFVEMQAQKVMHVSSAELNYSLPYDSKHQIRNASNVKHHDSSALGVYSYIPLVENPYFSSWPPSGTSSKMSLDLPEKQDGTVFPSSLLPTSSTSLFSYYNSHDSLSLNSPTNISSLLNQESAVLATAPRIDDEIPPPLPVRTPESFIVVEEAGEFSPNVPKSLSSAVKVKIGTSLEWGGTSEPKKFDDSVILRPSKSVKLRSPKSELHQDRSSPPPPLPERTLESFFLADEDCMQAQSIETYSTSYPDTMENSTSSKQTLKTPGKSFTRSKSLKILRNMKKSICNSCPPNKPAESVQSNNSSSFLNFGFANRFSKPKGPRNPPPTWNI
Format: functional.

The target of test [12] is T5, Tyrosine-protein phosphatase non-receptor type 22. The test is classed as functional. The source holds these as a separate data set.
Test [13] addresses T6, Corticotropin-releasing factor receptor 2/Corticotropin-releasing factor-binding protein (Homo sapiens, UniProt P24387+Q13324).
T6 sequence (Q13324 whole entry): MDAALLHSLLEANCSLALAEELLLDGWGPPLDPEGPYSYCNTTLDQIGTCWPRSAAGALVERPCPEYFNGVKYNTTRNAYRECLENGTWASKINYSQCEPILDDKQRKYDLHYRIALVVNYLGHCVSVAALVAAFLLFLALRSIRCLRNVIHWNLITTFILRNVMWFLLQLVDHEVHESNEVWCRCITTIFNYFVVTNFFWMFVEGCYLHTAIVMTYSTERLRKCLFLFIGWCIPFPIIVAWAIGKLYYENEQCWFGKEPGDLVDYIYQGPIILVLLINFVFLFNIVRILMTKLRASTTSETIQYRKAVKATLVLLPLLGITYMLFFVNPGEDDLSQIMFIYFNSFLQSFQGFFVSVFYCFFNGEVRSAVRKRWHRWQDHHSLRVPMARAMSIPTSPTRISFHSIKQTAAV
T6 sequence (P24387 whole entry): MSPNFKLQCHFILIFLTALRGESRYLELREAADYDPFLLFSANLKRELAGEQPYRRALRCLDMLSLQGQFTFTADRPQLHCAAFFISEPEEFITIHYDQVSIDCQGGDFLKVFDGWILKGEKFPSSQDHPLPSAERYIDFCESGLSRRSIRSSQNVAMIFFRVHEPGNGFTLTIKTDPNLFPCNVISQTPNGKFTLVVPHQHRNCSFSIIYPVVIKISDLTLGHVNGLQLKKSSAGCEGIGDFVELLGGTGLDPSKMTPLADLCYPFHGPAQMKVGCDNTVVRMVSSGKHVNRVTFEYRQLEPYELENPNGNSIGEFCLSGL
The test is described as follows: activators of CRF receptor 2 with binding protein – uHTS hits, confirmation (AID 602473). Format: functional. The settings on record: read-out: EC50_Mean.

In test [14] the target is Protein-arginine deiminase type-4 (Homo sapiens, UniProt Q9UM07). The test is described as follows: human PAD4 inhibitor potency, dose response, biochemical, fluorescence readout (AID 492970).
Protein-arginine deiminase type-4, sequence (Q9UM07 whole entry): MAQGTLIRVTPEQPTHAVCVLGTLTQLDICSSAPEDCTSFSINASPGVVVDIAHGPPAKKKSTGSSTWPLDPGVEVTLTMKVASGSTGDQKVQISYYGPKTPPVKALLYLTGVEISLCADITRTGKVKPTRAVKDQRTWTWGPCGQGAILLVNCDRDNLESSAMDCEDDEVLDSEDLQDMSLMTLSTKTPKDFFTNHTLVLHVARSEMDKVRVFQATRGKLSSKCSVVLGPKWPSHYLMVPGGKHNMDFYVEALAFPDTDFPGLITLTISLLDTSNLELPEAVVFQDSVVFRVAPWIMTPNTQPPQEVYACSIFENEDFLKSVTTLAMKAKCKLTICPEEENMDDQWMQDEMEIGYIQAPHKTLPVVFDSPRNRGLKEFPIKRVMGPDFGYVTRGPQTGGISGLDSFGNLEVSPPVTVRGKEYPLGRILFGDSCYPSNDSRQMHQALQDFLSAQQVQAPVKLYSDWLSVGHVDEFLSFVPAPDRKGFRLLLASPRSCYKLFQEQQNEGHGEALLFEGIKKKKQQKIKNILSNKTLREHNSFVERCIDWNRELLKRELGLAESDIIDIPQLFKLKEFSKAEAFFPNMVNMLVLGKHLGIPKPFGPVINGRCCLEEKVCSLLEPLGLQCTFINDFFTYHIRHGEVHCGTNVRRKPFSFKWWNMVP

Beta-lactamase (Salmonella choleraesuis (strain SC-B67), UniProt Q5J463), sequence (Q5J463 whole entry): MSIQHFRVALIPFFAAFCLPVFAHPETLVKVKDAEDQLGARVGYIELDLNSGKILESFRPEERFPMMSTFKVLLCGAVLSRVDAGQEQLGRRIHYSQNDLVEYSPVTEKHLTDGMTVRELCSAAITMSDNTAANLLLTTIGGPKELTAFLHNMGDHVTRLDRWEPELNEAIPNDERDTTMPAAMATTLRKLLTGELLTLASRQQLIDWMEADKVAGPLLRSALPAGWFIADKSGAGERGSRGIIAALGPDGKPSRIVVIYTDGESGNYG

In the case of `CN(C)/C=C1\C=C2C(=O)c3ccccc3N2C1=O`, the IC50 on Beta-lactamase [1] was 0.372 µM (active); in the test on HEK293 [5], > 89.2 µM (inactive); on Beta-lactamase [7] it was 1.02 µM (active). Also, the AC50 at ORF 73 is 0.051 µM (active). Further, the EC50 on Insulin-degrading enzyme [2] was > 54.7 µM (inactive); at Troponin, cardiac muscle, > 0.0109 µM (active); on Insulin-degrading enzyme [3], > 54.7 µM (inactive); in the test with HEK293 [4] it was > 54.7 µM (inactive); in test [6] it was > 0.0327 µM (active).
Regarding `Cc1ccc(NC(=O)C2CCN(c3ncnc4c3nc3n4CCCCC3)CC2)cc1Cl`, the results for the IC50 (on Bcl-2-related protein A1; in [8]; in [9]) were > 20 µM (inactive), 16 µM (active) and 6.92 µM (active), respectively.
For the compound `c1ccc2c(CN3CCCCC3)csc2c1`, the IC50 in test [10], in test [11] and in [12] was > 79.4 µM (inactive) throughout. Also, in test [13], the EC50 is 14.6 µM (active).
On to `NNC(=O)/C(=C\c1ccco1)NC(=O)c1ccccc1`, for which the IC50 in [14] was > 100 µM (inactive).
